Test results as given in patent US20060281700A1, “SYNERGISTIC MODULATION OF FLT3 KINASE USING AMINOPYRIMIDINES KINASE MODULATORS” (priority 2005, published 2006).

Legend:
[1] = target: T1, isolated kinase domain of the human FLT3 receptor (a.a. 571-993) (Homo sapiens, UniProt P36888); experiment: FLT3 Fluorescence Polarization Kinase Assay; format: biochemical; conditions: 10 nM FLT3 571-993, 150 uM ATP; uncertainty ±10%
T1 construct: isolated kinase domain of the human FLT3 receptor (a.a. 571-993)
T1 sequence (P36888 571-993): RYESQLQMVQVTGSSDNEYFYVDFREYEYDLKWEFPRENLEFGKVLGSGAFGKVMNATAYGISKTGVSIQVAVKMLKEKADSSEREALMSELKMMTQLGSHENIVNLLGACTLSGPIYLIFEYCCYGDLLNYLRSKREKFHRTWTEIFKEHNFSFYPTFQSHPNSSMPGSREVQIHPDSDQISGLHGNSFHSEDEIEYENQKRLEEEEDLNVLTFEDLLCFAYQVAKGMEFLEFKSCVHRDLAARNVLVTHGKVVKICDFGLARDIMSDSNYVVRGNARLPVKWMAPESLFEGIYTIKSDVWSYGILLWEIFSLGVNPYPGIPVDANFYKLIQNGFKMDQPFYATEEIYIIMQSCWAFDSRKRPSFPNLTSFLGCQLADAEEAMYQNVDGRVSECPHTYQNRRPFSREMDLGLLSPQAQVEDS
Method: FLT3 Fluorescence Polarization Kinase Assay
To determine the activity of the FLT3 inhibitors of Formula I′ in an in vitro kinase assay, inhibition of the isolated kinase domain of the human FLT3 receptor (a.a. 571-993) was performed using the following fluorescence polarization (FP) protocol. The FLT3 FP assay utilizes the fluorescein-labeled phosphopeptide and the anti-phosphotyrosine antibody included in the Panvera Phospho-Tyrosine Kinase Kit (Green) supplied by Invitrogen. When FLT3 phosphorylates polyGlu4Tyr, the fluorescein-labeled phosphopeptide is displaced from the anti-phosphotyrosine antibody by the phosphorylated poly Glu4Tyr, thus decreasing the FP value. The FLT3 kinase reaction is incubated at room temperature for 30 minutes under the following conditions: 10 nM FLT3 571-993, 20 ug/mL poly Glu4Tyr, 150 uM ATP, 5 mM MgCl2, 1% compound in DMSO. The kinase reaction is stopped with the addition of EDTA. The fluorescein-labeled phosphopeptide and the anti-phosphotyrosine antibody are added and incubated for 30 minutes at room temperature.
All data points are an average of triplicate samples. Inhibition and IC50 data analysis was done with GraphPad Prism using a non-linear regression fit with a multiparamater, sigmoidal dose-response (variable slope) equation.

[2] = test system: MV4-11 cells; experiment: Inhibition of MV4-11 cell proliferation (CellTiterGlo, 72 hours); format: cell-based; conditions: Homo sapiens; 72 hours growth; uncertainty ±20%
Method: Inhibition Of MV4-11 and Baf3 Cell Proliferation
To assess the cellular potency of the FLT3 inhibitors of Formula I′, FLT3 specific growth inhibition was measured in the leukemic cell line MV4-11 (ATCC Number: CRL-9591). […] MV4-11 cells cannot grow and survive without active FLT3ITD.
To measure proliferation inhibition by test compounds, the luciferase based CellTiterGlo reagent (Promega), which quantifies total cell number based on total cellular ATP concentration, was used. Cells are plated at 10,000 cells per well in 100 ul of in RPMI media containing penn/strep, 10% FBS and 1 ng/ml GM-CSF or 1 ng/ml IL-3 for MV4-11 and Baf3 cells respectively.
Compound dilutions or 0.1% DMSO (vehicle control) are added to cells and the cells are allowed to grow for 72 hours at standard cell growth conditions (37° C., 5% CO2). For activity measurements in MV4-11 cells grown in 50% plasma, cells were plated at 10,000 cells per well in a 1:1 mixture of growth media and human plasma (final volume of 100 μL). To measure total cell growth an equal volume of CellTiterGlo reagent was added to each well, according to the manufacturer's instructions, and luminescence was quantified. Total cell growth was quantified as the difference in luminescent counts (relative light units, RLU) of cell number at Day 0 compared to total cell number at Day 3 (72 hours of growth and/or compound treatment). One hundred percent inhibition of growth is defined as an RLU equivalent to the Day 0 reading. Zero percent inhibition was defined as the RLU signal for the DMSO vehicle control at Day 3 of growth. All data points are an average of triplicate samples. […] Inhibition and IC50 data analysis was done with GraphPad Prism using a non-linear regression fit with a multiparamater, sigmoidal dose-response (variable slope) equation.
MV4-11 cells express the FLT3 internal tandem duplication mutation, and thus are entirely dependent upon FLT3 activity for growth. […] In contrast, the Baf3 cell proliferation is driven by the cytokine IL-3 and thus are used as a non-specific toxicity control for test compounds.

SMILES	IC50 [1] [nM]	IC50 [2] [nM]
CC(C)Oc1ccc(NC(=O)OC2CCN(c3ncnc(N)c3/C=N/OCCN3CCOCC3)CC2)cc1 [Number 3, (4-Isopropoxy-phenyl)-carbamic acid 1-{6-amino-5-[(2-morpholin-4-yl-ethoxyimino)-methyl]-pyrimidin-4-yl}-piperidin-4-yl ester]	820	2800
CO/N=C/c1c(N)ncnc1N1CCC(NC(=O)Nc2ccc(N3CCCC3)cc2)CC1 [Number 24, 1-{1-[6-Amino-5-(methoxyimino-methyl)-pyrimidin-4-yl]-piperidin-4-yl}-3-(4-pyrrolidin-1-yl-phenyl)-urea]	198	1100
CC(C)c1ccc(NC(=O)NC2CCN(c3ncnc(N)c3/C=N/OCCN)C2)cc1 (stereo not shown) [Number 27, 1-(1-{6-Amino-5-[(2-amino-ethoxyimino)-methyl]-pyrimidin-4-yl}-pyrrolidin-3-yl)-3-(4-isopropyl-phenyl)-urea]	> 10000	1700

More lines, in order of falling IC50 [1], values ahead:

IC50 [1] [nM]	IC50 [2] [nM]	SMILES
4700	209	CO/N=C/c1c(N)ncnc1N1CCC(NC(=O)Nc2ccc(C(C)C)cc2)C1 (stereo not shown) [Number 30, 1-{1-[6-Amino-5-(methoxyimino-methyl)-pyrimidin-4-yl]-pyrrolidin-3-yl}-3-(4-isopropyl-phenyl)-urea]
1800	1400	CO/N=C/c1c(N)ncnc1N1CCC(NC(=O)Cc2ccc(C(C)C)cc2)CC1 [Number 16, N-{1-[6-Amino-5-(methoxyimino-methyl)-pyrimidin-4-yl]-piperidin-4-yl}-2-(4-isopropyl-phenyl)-acetamide]
